Measurements: US7572793B2, “3-Substituted-4-pyrimidone derivatives” (Mitsubishi Tanabe Pharma Corporation, priority 2001, dated 2009)

Molecular target: T1, bovine cerebral TPK1 (Bos taurus, UniProt A0A3Q1MT31)
T1 construct: from tissue; host or cells: bovine brain (cerebrum)
Test: Inhibitory activity against P-GS1 phosphorylation by bovine cerebral TPK1
Assay type: biochemical
Conditions: 41.7 μM [γ-32P]ATP, 25° C., 2 hours, pH 6.5
Procedure: Inhibitory Activity of the Medicament of the Present Invention Against P-GS1 Phosphorylation by Bovine Cerebral TPK1
A mixture containing 100 mM MES-sodium hydroxide (pH 6.5), 1 mM magnesium acetate, 0.5 mM EGTA, 5 mM β-mercaptoethanol, 0.02% Tween 20, 10% glycerol, 12 μg/ml P-GS1, 41.7 μM [y-^32P] ATP (68 kBq/ml), bovine cerebral TPK1 and a compound shown in Table (a final mixture contained 1.7% DMSO deriving from a solution of a test compound prepared in the presence of 10% DMSO) was used as a reaction system. The phosphorylation was started by adding ATP, and the reaction was conducted at 25° C. for 2 hours, and then stopped by adding 21% perchloric acid on ice cooling. The reaction mixture was centrifuged at 12,000 rpm for 5 minutes and adsorbed on P81 paper (Whatmann), and then the paper was washed four times with 75 mM phosphoric acid, three times with water and once with acetone. The paper was dried, and the residual radioactivity was measured using a liquid scintillation counter. […] PHF formation, and that the medicaments of the present invention are effective for preventive and/or therapeutic treatment of Alzheimer disease and the above-mentioned diseases.

T1 sequence (A0A3Q1MT31 1-419): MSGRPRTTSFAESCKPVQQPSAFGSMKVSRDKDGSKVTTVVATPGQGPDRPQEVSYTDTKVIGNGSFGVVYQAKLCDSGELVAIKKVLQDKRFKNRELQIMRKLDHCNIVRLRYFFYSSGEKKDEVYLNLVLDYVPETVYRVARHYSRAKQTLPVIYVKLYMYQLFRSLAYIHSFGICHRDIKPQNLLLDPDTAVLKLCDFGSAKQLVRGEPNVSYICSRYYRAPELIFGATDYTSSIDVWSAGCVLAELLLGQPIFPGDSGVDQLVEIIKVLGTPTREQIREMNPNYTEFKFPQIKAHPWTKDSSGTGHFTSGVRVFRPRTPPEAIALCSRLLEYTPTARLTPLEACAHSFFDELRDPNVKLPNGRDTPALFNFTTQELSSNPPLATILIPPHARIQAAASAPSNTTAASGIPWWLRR

| SMILES | IC50 [nM] |
| --- | --- |
| Cn1c(NCC(=O)c2ccccc2)nc(-c2ccncn2)cc1=O [Compound A119] | 24 |
| COc1cc(F)cc(F)c1C1CN(c2nc(-c3ccncn3)cc(=O)n2C)CCO1 (stereo not shown) [Compound B250] | 0.56 |
| Cn1c(N2CCOC(c3ccc(F)cc3)C2)nc(-c2ccncn2)cc1=O (stereo not shown) [Compound B030] | 11 |
| Cn1c(N2CCO[C@H](c3ccc(F)cc3)C2)nc(-c2ccncn2)cc1=O [Compound B032] | 32 |
| COc1ccc(-c2cccnc2)cc1C1CN(c2nc(-c3ccncn3)cc(=O)n2C)CCO1 (stereo not shown) [Compound B256] | 0.64 |
| Cn1c(N2CCOC(c3ccc(N4CCCC4)cc3)C2)nc(-c2ccncn2)cc1=O (stereo not shown) [Compound B140] | 3.7 |
| Cc1cccc(C(=O)CNc2nc(-c3ccncn3)cc(=O)n2C)c1 [Compound A130] | 30 |
| COc1cc(N2CCCC2)ccc1C1CN(c2nc(-c3ccncn3)cc(=O)n2C)CCO1 (stereo not shown) [Compound B260] | 0.77 |
| Cn1c(N2CCO[C@@H](c3ccc(F)cc3)C2)nc(-c2ccncn2)cc1=O [Compound B031, (S)-2-[2-(4-fluorophenyl)morpholin-4-yl]-3-methyl-6-pyrimidin-4-yl-3H-pyrimidin-4-one] | 5 |
| Cn1c(N2CCOC(c3ccccc3OCC3CC3)C2)nc(-c2ccncn2)cc1=O (stereo not shown) [Compound B126] | 23 |
| COc1cc(F)cc(OC)c1[C@H]1CN(c2nc(-c3ccncn3)cc(=O)n2C)CCO1 [Compound B244] | 0.17 |
| COc1ccc(N2CCCC2)cc1C1CN(c2nc(-c3ccncn3)cc(=O)n2C)CCO1 (stereo not shown) [Compound B259] | 1.2 |
| Cn1c(N2CCOC(c3ccc(CN4CCCC4)cc3)C2)nc(-c2ccncn2)cc1=O (stereo not shown) [Compound B112] | 2.1 |
| COc1cc(F)ccc1[C@H]1CN(c2nc(-c3ccncn3)cc(=O)n2C)CCO1 [Compound B238] | 0.47 |
| Cn1c(NCC(=O)c2cccc(F)c2)nc(-c2ccncn2)cc1=O [Compound A121] | 19 |
| COc1cc(F)cc(F)c1[C@H]1CN(c2nc(-c3ccncn3)cc(=O)n2C)CCO1 [Compound B254] | 0.24 |
| COc1ccccc1[C@H]1CN(c2nc(-c3ccncn3)cc(=O)n2C)CCO1 [Compound B085] | 0.87 |

| SMILES | IC50 [nM] |
| --- | --- |
| Cn1c(N2CCOC(c3c(F)cccc3Cl)C2)nc(-c2ccncn2)cc1=O (stereo not shown) [Compound B239] | 0.74 |
| COc1cccc(OC)c1C1CN(c2nc(-c3ccncn3)cc(=O)n2C)CCO1 (stereo not shown) [Compound B102] | 0.441 |
| COc1ccc(C#N)cc1C1CN(c2nc(-c3ccncn3)cc(=O)n2C)CCO1 (stereo not shown) [Compound B248] | 0.78 |
| COc1cc(-c2ccccc2)ccc1C1CN(c2nc(-c3ccncn3)cc(=O)n2C)CCO1 (stereo not shown) [Compound B258] | 1.4 |
| COc1cc(C)c(C)cc1C1CN(c2nc(-c3ccncn3)cc(=O)n2C)CCO1 (stereo not shown) [Compound B246] | 1.1 |
| COc1cc(F)cc(OC)c1[C@@H]1CN(c2nc(-c3ccncn3)cc(=O)n2C)CCO1 [Compound B245] | 1.3 |
| COc1ccc(-c2ccc(F)cc2)cc1C1CN(c2nc(-c3ccncn3)cc(=O)n2C)CCO1 (stereo not shown) [Compound B255] | 4.6 |
| Cn1c(N2CCOC(c3noc4ccccc34)C2)nc(-c2ccncn2)cc1=O (stereo not shown) [Compound B251] | 2.4 |
| COc1cccc(OC)c1[C@H]1CN(c2nc(-c3ccncn3)cc(=O)n2C)CCO1 [Compound B103] | 0.23 |
| COc1cc(Cl)ccc1C1CN(c2nc(-c3ccncn3)cc(=O)n2C)CCO1 (stereo not shown) [Compound B249] | 0.83 |
| Cn1c(N2CCO[C@@H](c3noc4ccccc34)C2)nc(-c2ccncn2)cc1=O [Compound B252] | 1 |
| Cn1c(N2CCOC(c3cccc4c3OCC4)C2)nc(-c2ccncn2)cc1=O (stereo not shown) [Compound B237] | 0.821 |
| Cn1c(N2CCO[C@@H](c3ccccc3F)C2)nc(-c2ccncn2)cc1=O [Compound B037] | 3 |
| Cn1c(N2CCOC(c3nc4ccccc4s3)C2)nc(-c2ccncn2)cc1=O (stereo not shown) [Compound B225] | 12 |
| COc1cc(C#N)ccc1C1CN(c2nc(-c3ccncn3)cc(=O)n2C)CCO1 (stereo not shown) [Compound B253] | 0.7 |
| Cn1c(N2CCOC(c3ccc(F)cc3OCC3CC3)C2)nc(-c2ccncn2)cc1=O (stereo not shown) [Compound B247] | 15 |
| COc1cccc(OC)c1[C@@H]1CN(c2nc(-c3ccncn3)cc(=O)n2C)CCO1 [Compound B104] | 4.5 |

Further lines, results first:

| IC50 [nM] | SMILES |
| --- | --- |
| 1.2 | COc1ccccc1-c1ccc(OC)c(C2CN(c3nc(-c4ccncn4)cc(=O)n3C)CCO2)c1 (stereo not shown) [Compound B267] |
| 13 | COc1ccc(-c2ccc(Cl)cc2Cl)cc1C1CN(c2nc(-c3ccncn3)cc(=O)n2C)CCO1 (stereo not shown) [Compound B263] |
| 0.64 | Cn1c(N2CCOC(C(=O)c3ccccc3)C2)nc(-c2ccncn2)cc1=O (single isomer, unassigned) [Compound C790] |
| 1.1 | Cn1c(N2CCC(C(=O)c3ccc(Cl)cc3)CC2)nc(-c2ccncn2)cc1=O [Compound D034, 2-[4-(4-Chlorobenzoyl)piperidin-1-yl]-3-methyl-6-pyrimidin-4-yl-3H-pyrimidin-4-one] |
| 0.6 | COc1ccc(CN2CCCC2)cc1C1CN(c2nc(-c3ccncn3)cc(=O)n2C)CCO1 (stereo not shown) [Compound B264] |
| 1.4 | COc1cc(-c2ccccc2F)ccc1C1CN(c2nc(-c3ccncn3)cc(=O)n2C)CCO1 (stereo not shown) [Compound B277] |
| 4.3 | COc1cccc2cc(C3CN(c4nc(-c5ccncn5)cc(=O)n4C)CCO3)oc12 (stereo not shown) [Compound B273] |
| 1.6 | COc1ccc(-c2cccc(F)c2)cc1C1CN(c2nc(-c3ccncn3)cc(=O)n2C)CCO1 (stereo not shown) [Compound B266] |
| 7 | Cn1c(N2CCOC(c3cccc(N4CCCC4)c3)C2)nc(-c2ccncn2)cc1=O (single isomer, unassigned) [Compound B275] |
| 1.4 | COc1ccc(-c2ccccc2F)cc1C1CN(c2nc(-c3ccncn3)cc(=O)n2C)CCO1 (stereo not shown) [Compound B261] |
| 1.1 | COc1cc(-c2cccc(F)c2)ccc1C1CN(c2nc(-c3ccncn3)cc(=O)n2C)CCO1 (stereo not shown) [Compound B278] |
| 0.84 | COc1cccc(-c2ccc(OC)c(C3CN(c4nc(-c5ccncn5)cc(=O)n4C)CCO3)c2)n1 (stereo not shown) [Compound B281] |
| 7.1 | Cn1c(N2CCO[C@@H](c3cc4ccccc4o3)C2)nc(-c2ccncn2)cc1=O [Compound B272] |
| 4.8 | Cn1c(N2CCOC(c3cccc(N4CCCC4)c3)C2)nc(-c2ccncn2)cc1=O (single isomer, unassigned) [Compound B276] |
| 1.9 | COc1ncc(-c2ccc(OC)c(C3CN(c4nc(-c5ccncn5)cc(=O)n4C)CCO3)c2)c(OC)n1 (stereo not shown) [Compound B283] |
| 11 | Cn1c(N2CCOC3(CCOc4ccccc43)C2)nc(-c2ccncn2)cc1=O (stereo not shown) [Compound B284] |
| 38 | Cn1c(N2CCOC(C(=O)c3ccccc3)C2)nc(-c2ccncn2)cc1=O (single isomer, unassigned) [Compound C789] |
| 0.57 | COc1ccc(-c2cccc(CN3CCCC3)c2)cc1C1CN(c2nc(-c3ccncn3)cc(=O)n2C)CCO1 (stereo not shown) [Compound B274] |
| 1.1 | Cn1c(N2CCCC(C(=O)c3ccccc3)C2)nc(-c2ccncn2)cc1=O (stereo not shown) [Compound C401] |
| 1.7 | COc1ccc(-c2ccc(OC)c(C3CN(c4nc(-c5ccncn5)cc(=O)n4C)CCO3)c2)cc1 (stereo not shown) [Compound B268] |
| 0.6 | COc1ccc(-c2ccccn2)cc1C1CN(c2nc(-c3ccncn3)cc(=O)n2C)CCO1 (stereo not shown) [Compound B280] |
